Publication PMC5430962, “Retro-inverso Urokinase Receptor Antagonists for the Treatment of Metastatic Sarcomas” (Scientific Reports, 2017)
[ ]: non-standard residue; d: D form. Aib = CC(C)(N)C(=O)O

Assays:
[1] = Stability in bovine serum, read out as inhibition of HT1080 migration (xCELLigence); type: in vitro ADME; conditions: pre-incubated at 10^−3 M in bovine serum 18 hr at 37 °C, tested at 10 nM on HT1080 migration 18 hr, quadruplicate
Protocol: A major limitation of peptides for use as therapeutics is susceptibility to degradation by serum proteases. The stability of RI-3 in bovine and human serum was investigated by comparing inhibitory activities of RI-3 and RI-3 pre-incubated at 10^−3 M with serum for 18 hr at 37 °C on cell migration and invasion. HT1080 cells were allowed to migrate for 18 hr toward DMEM (CTRL), 10% FBS (None), 10% FBS plus 10 nM RI-3 or 10% FBS with 10 nM RI-3 pre-incubated in bovine serum. […] The stability of RI-3 in human serum was investigated in cell invasion experiments performed in Boyden chambers. […]
(a) HT1080 cells were allowed to migrate in real time for 18 hr toward DMEM (CTRL), or 10% FBS in the absence (None) or the presence of 10 nM RI-3 or 10 nM RI-3 pre-incubated at 10^−3 M in bovine serum for 18 hr at 37 °C. […] The basal value assessed in the absence of FBS (CTRL) was taken as 100% and all values were reported relative to that. Data are the means ± SD three independent experiments, performed in triplicate. *Indicates statistical significance calculated against None, with *P < 0.05, **P < 0.0001. (c) Cell proliferation of HT1080 cells assessed by MTS assay. […] At the indicated times, the absorbance of adherent cells was assessed with a microplate reader. […]

[2] = system: GFP-Sarc cells on HUVEC monolayer; assay: GFP-Sarc cell adhesion onto endothelium; type: cell-based, human; conditions: 10 nM
Protocol: GFP-tagged Sarc cells were seeded on an endothelial monolayer as previously described. Briefly, sterile round glass coverslips (12 mm in diameter) were coated with 1:8 diluted matrigel (Becton Dickinson). HUVEC (5 × 10^4 cells in 200 μL/well) were seeded onto matrigel and allowed to form a monolayer for ~24 hr at 37 °C, 5% CO2 prior to seeding GFP-Sarc cells (1 × 10^4 cells/well) suspended in complete endothelial medium plus diluents or 10 nM RI-3. At the indicated times, cell-associated fluorescence was assessed by reading cells with the fluorescence plate reader. In a subset of experiments, after 2 hr, cells were stained with rhodamine-conjugated phalloidin and green fluorescent Sarc cells were identified on multiple z-series collected at 0.20 µm intervals using a confocal microscope (Carl Zeiss).

GFP-tagged Sarc cells = assay: Growth and spread of subcutaneous GFP-tagged Sarc tumors in nude mice; type: in vivo, Foxn1nu/nu female nude mice; conditions: five mice per group
Protocol: To evaluate the effect of RI-3 on tumor growth and vascularization, Sarc cells were injected, as a single-cell suspension (1 × 10^6 cells in 100 µl of sterile PBS, 97% viability), subcutaneously in the flanks of sixteen six-eight weeks old, Foxn1nu/nu female nude mice (Harlan). Animals were randomized into two 8-mice groups with the treatment group receiving 6 mg/kg RI-3 by intra-peritoneal injection every 24 hr, and the control group receiving an equivalent injected volume of vehicle (PBS) only. Time-dependent average weight was monitored every two days. The length and the width of tumors were measured at different time points with a calliper and volumes were calculated using the formula: ½ × (width)[2] × length (mm). After 10 days, blood samples (at least 500 µL/mouse) from the retro-orbital venous plexus of mice anesthetized with 1% isoflurane were collected using a heparinized capillary tube and processed for determination of the Circulating Tumor Cells (CTCs). Then, the animals were sacrificed, the excised tumors were fixed in buffered formalin and processed for paraffin sectioning. Tumor vascularization was assessed by counting vascular channels harbouring red blood cells on CD31 immuno-stained sections in 5 randomly chosen fields per section, in at least two sections per tumor at x 200 as described. Two additional experiments were carried out with the same experimental design by injecting GFP-tagged Sarc cells (1 × 10^6 cells/mouse) subcutaneously in the flanks of twenty-five six-eight weeks old, Foxn1nu/nu female nude mice (Harlan). Animals were treated with 6 mg/kg RI-3, 6 mg/kg RERF or vehicle by intra-peritoneal injection every 24 hr for 10 or 12 days. Tumor growth and the appearance of positive tumor lesions near tumors and in lungs were monitored as brightly visualized by GFP fluorescence with a MacroFluo fluorescence stereomicroscope (Leica). We searched for the presence of GFP-positive nodules on the entire surface of freshly isolated lungs. Lungs were also sliced at approximately 3-mm thickness to examine the parenchyma in depth, and the positive nodules were acquired at higher magnification.

## Ac-[dY][dR][Aib][dR]-NH2 (SMILES CC(=O)N[C@H](Cc1ccc(O)cc1)C(=O)N[C@H](CCCNC(=N)N)C(=O)NC(C)(C)C(=O)N[C@H](CCCNC(=N)N)C(N)=O) [RI-3]
[1]
  cell index curves of migrating cells, peptide vs peptide pre-incubated in bovine serum: overlapping curves
[2]; after 5 min
  reduction of cell-associated fluorescence (adhesion to endothelium): 72%
[2]; after 10 min
  reduction of cell-associated fluorescence (adhesion to endothelium): 50%
[2]; after 20 min
  reduction of cell-associated fluorescence (adhesion to endothelium): 20%
[2]; after 40 min
  reduction of cell-associated fluorescence (adhesion to endothelium): 22%
GFP-tagged Sarc cells; 6 mg/Kg i.p. every day for 12 days
  changes in body weight: did not cause changes in body weight
GFP-tagged Sarc cells; 6 mg/Kg i.p. every day for 12 days, untreated 3/5
  lungs with GFP-positive nodules (MacroFluo): negative
GFP-tagged Sarc cells; 6 mg/Kg i.p. every day for 12 days, vehicle 678 +/− 169
  volume of tumors after 12 days: 381 +/− 123 mm^3
GFP-tagged Sarc cells; set-up experiment, 6 mg/Kg i.p. every day, sacrifice after 12 days, vehicle 4/5
  animals with subcutaneous GFP-positive lesions distant at least one centimeter from the primary tumors: 2/5
